The test system of test [1] is Hepatitis C virus. As to the kind of experiment: Inhibition of HCV1b NS5B polymerase assessed as [alpha-32P]UTP incorporation by non-competitive double reciprocal plot. As to conditions: Hepatitis C virus subtype 1b.
Test [2] relates to Hepatitis C virus. As to the kind of experiment: Inhibition of HCV1b NS5B polymerase after 2 hrs by RdRp activity assay. More on the design: species or system Hepatitis C virus subtype 1b.
Test [3] has as its system Hepatitis C virus. As to the kind of experiment: Inhibition of HCV1b NS5B polymerase at 100 uM after 2 hrs by RdRp activity assay. More on the design: species or system Hepatitis C virus subtype 1b.

Active and inactive are the calls of the source. No cut-off for these calls is given here.

As for `Nc1ncnc2c1ncn2/C=C/C(=O)c1ccco1`, the outcome with Hepatitis C virus [1] was Active. This compound registered a concentration for half-maximal inhibition (IC50) with Hepatitis C virus [2] of 20 µM. Also, in the test with Hepatitis C virus [3], the inhibition at 100 µM is over 80%.
Consider `O=C(Nc1cccn(Cc2ccc(Cl)c(Cl)c2)c1=O)Sc1cccc(C(F)(F)F)c1`, for which, in the test on Hepatitis C virus [1], the outcome was Active. Moreover, the concentration for half-maximal inhibition (IC50) in the test on Hepatitis C virus [2] amounted to 20 µM. In the test with Hepatitis C virus [3], this compound had an inhibition at 100 µM of over 80%.
The matching figures for `Nc1ncnc2c1ncn2/C=C/C(=O)c1ccccc1`: “Active”, 20 µM and over 80%.

As usually defined, the IC50 is the point on the concentration scale where inhibition reaches its midpoint. Low readings indicate higher potency, high ones lower potency. A word on the inhibition: it is the change of the read-out against control, counted positive when it falls. The low end stands for a weak effect, the high end for a strong effect.

For the origin of these results see ChEMBL document CHEMBL1153821, “Identification of novel inhibitors of HCV RNA-dependent RNA polymerase by pharmacophore-based virtual screening and in vitro evaluation” (Bioorg Med Chem, 2009).
